According to patent publication US9796733B2, “Imidazo-pyrazine derivatives useful as soluble guanylate cyclase activators” (Merck Sharp & Dohme Corp., priority 2014, dated 2017):

Target: T1, sGC α1/β1 heterodimer (Homo sapiens, UniProt Q02108+Q02153)
T1 construct: expressed in transfected cells; host or cells: CHO-K1 (clone #7, CHO-K1/sGC)
T1 sequence (Q02108 1-690): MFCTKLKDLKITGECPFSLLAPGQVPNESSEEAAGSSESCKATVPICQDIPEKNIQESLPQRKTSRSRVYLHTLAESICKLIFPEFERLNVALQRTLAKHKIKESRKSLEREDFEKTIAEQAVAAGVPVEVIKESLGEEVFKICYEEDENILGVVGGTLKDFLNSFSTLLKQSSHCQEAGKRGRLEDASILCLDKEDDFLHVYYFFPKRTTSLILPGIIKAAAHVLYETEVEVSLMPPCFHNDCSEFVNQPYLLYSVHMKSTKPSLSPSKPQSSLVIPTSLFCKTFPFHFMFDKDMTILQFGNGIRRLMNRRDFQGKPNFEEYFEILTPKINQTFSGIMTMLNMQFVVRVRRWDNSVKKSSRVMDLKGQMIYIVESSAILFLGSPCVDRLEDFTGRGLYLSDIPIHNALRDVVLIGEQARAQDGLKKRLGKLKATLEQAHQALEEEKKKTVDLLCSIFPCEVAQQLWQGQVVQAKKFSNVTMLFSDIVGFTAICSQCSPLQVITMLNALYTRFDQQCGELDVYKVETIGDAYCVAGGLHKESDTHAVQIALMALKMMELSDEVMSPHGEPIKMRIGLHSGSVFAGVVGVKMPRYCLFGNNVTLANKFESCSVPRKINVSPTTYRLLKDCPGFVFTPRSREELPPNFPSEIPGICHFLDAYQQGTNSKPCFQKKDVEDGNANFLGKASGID
T1 sequence (Q02153 1-619): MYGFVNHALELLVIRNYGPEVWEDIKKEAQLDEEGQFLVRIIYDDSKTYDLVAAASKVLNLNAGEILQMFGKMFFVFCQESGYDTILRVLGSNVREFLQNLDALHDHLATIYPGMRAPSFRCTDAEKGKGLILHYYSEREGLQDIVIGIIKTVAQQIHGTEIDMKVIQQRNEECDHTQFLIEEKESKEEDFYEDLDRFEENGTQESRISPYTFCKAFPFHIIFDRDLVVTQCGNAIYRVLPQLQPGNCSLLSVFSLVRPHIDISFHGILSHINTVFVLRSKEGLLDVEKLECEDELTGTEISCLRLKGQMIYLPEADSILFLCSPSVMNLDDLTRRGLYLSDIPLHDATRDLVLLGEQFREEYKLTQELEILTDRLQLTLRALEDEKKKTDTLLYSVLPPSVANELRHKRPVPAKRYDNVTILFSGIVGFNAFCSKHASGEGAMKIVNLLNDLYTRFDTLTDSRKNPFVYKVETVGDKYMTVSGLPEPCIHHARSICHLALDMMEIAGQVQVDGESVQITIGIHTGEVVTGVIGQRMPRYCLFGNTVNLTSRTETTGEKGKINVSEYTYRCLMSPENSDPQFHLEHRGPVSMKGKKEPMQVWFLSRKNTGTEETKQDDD
Experiment: Cell-based sGC functional assay (CASA assay): cGMP generation in CHO-K1/sGC cells, HTRF detection
Conditions: for Emax: CHO-K1, percent activation relative to standard Compound A in CHO-K1/sGC cells, read-out: % Act.; for EC50: inflection point (IP) of cGMP generation in CHO-K1/sGC cells, 4P fit, activity expressed as percentage of Compound A
Summary of the method: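 Stable CHO-K1/sGC cells in EBSS buffer with 5 mM MgCl2, 0.05% BSA and 0.5 mM IBMX were incubated with compound (2.5% DMSO final) ±1 μM DETA-NO for 1 hr at 37° C. cGMP was measured by HTRF. Activation is expressed as % of reference HDA Compound A maximum, with IP and max fold induction from a 4P fit.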

Structure (SMILES) | Emax | EC50
CC1(c2ccc(Cl)cc2)C(=O)Nc2nc(-c3cn4ccnc4c(CCCC(F)(F)F)n3)nc(N)c21 (stereo not shown) [Example 206A, 4-amino-5-(4-chlorophenyl)-5-methyl-2-(8-(4,4,4-trifluorobutyl)imidazo[1,2-a]pyrazin-6-yl)-5H-pyrrolo[2,3-d]pyrimidin-6(7H)-one] | 116% | 21 nM
COc1ccc(C2(C)C(=O)Nc3nc(-c4cn5ccnc5c(CCCC(F)(F)F)n4)nc(N)c32)nc1 (stereo not shown) [Example 212B, 4-amino-5-(5-methoxypyridin-2-yl)-5-methyl-2-(8-(4,4,4-trifluorobutyl)imidazo[1,2-a]pyrazin-6-yl)-5H-pyrrolo[2,3-d]pyrimidin-6(7H)-one] | 83% | 87 nM
CCOc1ccc(C2(C)C(=O)Nc3nc(-c4cn5ccnc5c(CCC(F)(F)C(F)(F)F)n4)nc(N)c32)nc1 (stereo not shown) [Example 224A, 4-amino-5-(5-ethoxypyridin-2-yl)-5-methyl-2-(8-(3,3,4,4,4-pentafluorobutyl)imidazo [1,2-a]pyrazin-6-yl)-5H-pyrrolo[2,3-d]pyrimidin-6(7H)-one] | 77% | 153 nM
CC1(c2ccccn2)C(=O)Nc2nc(-c3cn4ccnc4c(CCC(F)(F)C(F)(F)F)n3)nc(N)c21 (stereo not shown) [Example 226A, 4-amino-5-methyl-2-(8-(3,3,4,4,4-pentafluorobutyl)imidazo [1,2-a]pyrazin-6-yl)-5-(pyridin-2-yl)-5H-pyrrolo[2,3-d]pyrimidin-6(7H)-one] | 124% | 287 nM
CC1(c2ccc(C3CC3)cn2)C(=O)Nc2nc(-c3cn4ccnc4c(CCC(F)(F)C(F)(F)F)n3)nc(N)c21 (stereo not shown) [Example 227B, 4-amino-5-(5-cyclopropylpyridin-2-yl)-5-methyl-2-(8-(3,3,4,4,4-pentafluorobutyl)imidazo [1,2-a]pyrazin-6-yl)-5H-pyrrolo[2,3-d]pyrimidin-6(7H)-one] | 111% | 249 nM
COc1ccc(C2(C)C(=O)Nc3nc(-c4cn5ccnc5c(CCC(F)(F)C(F)(F)F)n4)nc(N)c32)cc1 (stereo not shown) [Example 229B, 4-amino-5-(4-methoxyphenyl)-5-methyl-2-(8-(3,3,4,4,4-pentafluorobutyl)imidazo [1,2-a]pyrazin-6-yl)-5H-pyrrolo[2,3-d]pyrimidin-6(7H)-one] | 122% | 26 nM
Cc1ccc(C2(C)C(=O)Nc3nc(-c4cn5ccnc5c(CCC(F)(F)C(F)(F)F)n4)nc(N)c32)cc1 (stereo not shown) [Example 230B, 4-amino-5-methyl-2-(8-(3,3,4,4,4-pentafluorobutyl)imidazo [1,2-a]pyrazin-6-yl)-5-(p-tolyl)-5H-pyrrolo[2,3-d]pyrimidin-6(7H)-one] | 117% | 32 nM
COc1ccc(C2(C)C(=O)Nc3nc(-c4cn5ccnc5c(CCC(F)(F)C(F)(F)F)n4)nc(N)c32)cn1 (stereo not shown) [Example 236B, 4-amino-5-(6-methoxypyridin-3-yl)-5-methyl-2-(8-(3,3,4,4,4-pentafluorobutyl)imidazo [1,2-a]pyrazin-6-yl)-5H-pyrrolo[2,3-d]pyrimidin-6(7H)-one] | 91% | 35 nM
CC1(c2ccc(C(F)(F)F)cc2)C(=O)Nc2nc(-c3cn4ccnc4c(CCC(F)(F)C(F)(F)F)n3)nc(N)c21 (stereo not shown) [Example 237B, 4-amino-5-methyl-2-(8-(3,3,4,4,4-pentafluorobutyl)imidazo [1,2-a]pyrazin-6-yl)-5-(4-(trifluoromethyl)phenyl)-5H-pyrrolo[2,3-d]pyrimidin-6(7H)-one] | 119% | 53 nM
CC(C)Oc1ccc(C2(C)C(=O)Nc3nc(-c4cn5ccnc5c(CCC(F)(F)C(F)(F)F)n4)nc(N)c32)cn1 (stereo not shown) [Example 241B, 4-amino-5-(6-isopropoxypyridin-3-yl)-5-methyl-2-(8-(3,3,4,4,4-pentafluorobutyl)imidazo [1,2-a]pyrazin-6-yl)-5H-pyrrolo[2,3-d]pyrimidin-6(7H)-one] | 99% | 58 nM
CCc1ccc(C2(C)C(=O)Nc3nc(-c4cn5ccnc5c(CCC(F)(F)C(F)(F)F)n4)nc(N)c32)nc1 (stereo not shown) [Example 242B, 4-amino-5-(5-ethylpyridin-2-yl)-5-methyl-2-(8-(3,3,4,4,4-pentafluorobutyl)imidazo [1,2-a]pyrazin-6-yl)-5H-pyrrolo[2,3-d]pyrimidin-6(7H)-one] | 133% | 127 nM
COc1ccc(C2(C)C(=O)Nc3nc(-c4cn5ccnc5c(CCC(F)(F)C(F)(F)F)n4)nc(N)c32)nc1 (stereo not shown) [Example 248B, 4-amino-5-(5-methoxypyridin-2-yl)-5-methyl-2-(8-(3,3,4,4,4-pentafluorobutyl)imidazo [12-a]pyrazin-6-yl)-5H-pyrrolo[2,3-d]pyrimidin-6(7H)-one] | 88% | 82 nM
Cc1ccc(C2(C)C(=O)Nc3nc(-c4cn5ccnc5c(CCC(F)(F)C(F)(F)F)n4)nc(N)c32)nn1 (stereo not shown) [Example 252B, 4-amino-5-methyl-5-(6-methylpyridazin-3-yl)-2-(8-(3,3,4,4,4-pentafluorobutyl)imidazo [1,2-a]pyrazin-6-yl)-5H-pyrrolo[2,3-d]pyrimidin-6(7H)-one] | 121% | 175 nM

Other lines, results leading:

Emax | EC50 | Structure (SMILES)
86% | 24 nM | CC1(c2ccccc2)C(=O)Nc2nc(-c3cn4c(Cl)cnc4c(CCC(F)(F)C(F)(F)F)n3)nc(N)c21 (stereo not shown) [Example 256B, 4-amino-2-(3-chloro-8-(3,3,4,4,4-pentafluorobutyl)imidazo [1,2-a]pyrazin-6-yl)-5-methyl-5-phenyl-5H-pyrrolo[2,3-d]pyrimidin-6(7H)-one]
146% | 614 nM | CC1(C)C(=O)Nc2nc(-c3cn4c(Cl)cnc4c(CCC(F)(F)C(F)(F)F)n3)nc(N)c21 [Example 257, 4-amino-2-(3-chloro-8-(3,3,4,4,4-pentafluorobutyl)imidazo [1,2-a]pyrazin-6-yl)-5,5-dimethyl-5H-pyrrolo[2,3-d]pyrimidin-6(7H)-one]
116% | 89 nM | CC1(c2ccc(F)cc2)C(=O)Nc2nc(-c3cn4c(Cl)cnc4c(CCC(F)(F)F)n3)nc(N)c21 (stereo not shown) [Example 258A, 4-amino-2-(3-chloro-8-(3,3,3-trifluoropropyl)imidazo[1,2-a]pyrazin-6-yl)-5-(4-fluorophenyl)-5-methyl-5H-pyrrolo[2,3-d]pyrimidin-6(7H)-one]
99% | 112 nM | CC1(c2ccccc2)C(=O)Nc2nc(-c3cn4c(Cl)cnc4c(CCC(F)(F)F)n3)nc(N)c21 (stereo not shown) [Example 259B, 4-amino-2-(3-chloro-8-(3,3,3-trifluoropropyl)imidazo[1,2-a]pyrazin-6-yl)-5-methyl-5-phenyl-5H-pyrrolo[2,3-d]pyrimidin-6(7H)-one]
90% | 504 nM | CC1(c2ccc(F)cc2)C(=O)Nc2nc(-c3cn4c(Cc5ccccc5)cnc4c(CCC(F)(F)C(F)(F)F)n3)nc(N)c21 (stereo not shown) [Example 260A, 4-Amino-2-(3-benzyl-8-(3,3,4,4,4-pentafluorobutyl)imidazo[1,2-a]pyrazin-6-yl)-5-(4-fluorophenyl)-5-methyl-5H-pyrrolo[2,3-d]pyrimidin-6(7H)-one]
116% | 822 nM | CC1(c2ccc(F)cc2)C(=O)Nc2nc(-c3cn4c(CCC5CCCCC5)cnc4cn3)nc(N)c21 (stereo not shown) [Example 261A, 4-Amino-2-(3-(2-cyclohexylethyl)imidazo[1,2-a]pyrazin-6-yl)-5-(4-fluorophenyl)-5-methyl-5H-pyrrolo[2,3-d]pyrimidin-6(7H)-one]
105% | 236 nM | CC1(c2ccc(F)cn2)C(=O)Nc2nc(-c3cn4c(Br)cnc4c(CCC(F)(F)C(F)(F)F)n3)nc(N)c21 (stereo not shown) [Example 262B, 4-Amino-2-(3-bromo-8-(3,3,4,4,4-pentafluorobutyl)imidazo[1,2-a]pyrazin-6-yl)-5-(5-fluoropyridin-2-yl)-5-methyl-5H-pyrrolo[2,3-d]pyrimidin-6(7H)-one]
